This is an account of results in patent EP3807270B1, “NOVEL HETEROARYL HETEROCYCLYL COMPOUNDS FOR THE TREATMENT OF AUTOIMMUNE DISEASE” (F. Hoffmann-La Roche AG, priority 2018, dated 2019).

For one data set, the target named is T1, CYP2D6 (Homo sapiens, UniProt P10635).
T1 construct: tissue BD-Gentest 452117; host or cells: human liver microsomes
Nature of the data set: CYP inhibition assay in human liver microsome. The format is in vitro ADME. The note with it: human liver microsomes, probe dextromethorphan, 10µM test compound, dextromethorphan substrate, <0: not or weak inhibitor, read-out: CYP 2D6 inhibition %@10µM. In short, it runs like this: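 HLM mixed with CYP2D6 substrate, preincubated 10 min at 37 °C, started with NADPH regenerating system and run 10 min at 37 °C before acetonitrile quench. Metabolite measured by RapidFire MS/MS against D3-dextrorphan internal standard. % inhibition scaled between DMSO and concentrated-inhibitor controls.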
(Microsomes from liver hold many membrane-bound enzymes, among them those of drug oxidation.)

For a further data set, the target named is T2, hTLR9 (Homo sapiens, UniProt Q9NR96).
T2 sequence (Q9NR96 26-1032): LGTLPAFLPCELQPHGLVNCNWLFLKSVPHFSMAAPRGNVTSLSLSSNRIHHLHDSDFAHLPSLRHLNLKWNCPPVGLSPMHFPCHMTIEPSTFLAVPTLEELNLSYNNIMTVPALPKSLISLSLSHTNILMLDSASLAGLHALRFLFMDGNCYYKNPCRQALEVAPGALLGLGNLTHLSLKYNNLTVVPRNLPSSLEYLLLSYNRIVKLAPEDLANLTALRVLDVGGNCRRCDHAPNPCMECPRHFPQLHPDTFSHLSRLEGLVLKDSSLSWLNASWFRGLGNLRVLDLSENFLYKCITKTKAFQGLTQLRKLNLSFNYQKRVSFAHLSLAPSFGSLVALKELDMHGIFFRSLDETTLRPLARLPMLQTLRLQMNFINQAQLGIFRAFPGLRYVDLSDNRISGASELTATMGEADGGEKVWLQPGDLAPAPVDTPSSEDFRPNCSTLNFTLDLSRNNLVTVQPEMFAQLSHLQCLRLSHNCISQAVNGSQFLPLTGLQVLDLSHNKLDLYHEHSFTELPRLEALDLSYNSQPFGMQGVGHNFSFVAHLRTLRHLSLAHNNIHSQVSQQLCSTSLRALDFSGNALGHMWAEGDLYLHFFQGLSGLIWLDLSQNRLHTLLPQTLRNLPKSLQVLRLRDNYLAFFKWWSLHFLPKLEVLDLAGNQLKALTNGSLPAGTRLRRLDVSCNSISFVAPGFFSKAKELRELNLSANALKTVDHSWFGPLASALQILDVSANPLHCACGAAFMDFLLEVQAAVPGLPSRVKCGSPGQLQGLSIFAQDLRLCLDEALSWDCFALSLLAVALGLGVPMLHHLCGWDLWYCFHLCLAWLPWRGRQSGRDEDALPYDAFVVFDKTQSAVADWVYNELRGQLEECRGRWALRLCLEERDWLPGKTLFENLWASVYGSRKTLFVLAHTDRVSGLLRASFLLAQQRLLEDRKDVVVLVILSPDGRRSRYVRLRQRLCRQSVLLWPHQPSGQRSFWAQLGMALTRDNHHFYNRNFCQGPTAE
Also noted: host or cells: HEK. The note with it: data disclosed in US20150105370; read-out: HEK/hTLR9 IC50; cited from earlier work.

T1 sequence (P10635 whole entry): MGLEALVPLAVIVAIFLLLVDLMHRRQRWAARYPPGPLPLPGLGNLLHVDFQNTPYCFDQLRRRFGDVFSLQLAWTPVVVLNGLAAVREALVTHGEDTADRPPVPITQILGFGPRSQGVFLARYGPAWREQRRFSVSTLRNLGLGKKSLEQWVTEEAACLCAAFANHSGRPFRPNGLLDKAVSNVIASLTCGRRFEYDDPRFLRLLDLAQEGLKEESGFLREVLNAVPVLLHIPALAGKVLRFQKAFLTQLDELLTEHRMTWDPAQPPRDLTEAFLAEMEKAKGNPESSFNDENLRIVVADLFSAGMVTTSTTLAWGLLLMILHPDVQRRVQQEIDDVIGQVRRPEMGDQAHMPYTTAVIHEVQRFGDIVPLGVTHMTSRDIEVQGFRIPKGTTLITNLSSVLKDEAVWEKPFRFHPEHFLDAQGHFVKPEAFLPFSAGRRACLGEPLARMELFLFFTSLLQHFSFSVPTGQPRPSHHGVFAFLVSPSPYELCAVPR

Consider `C[C@@H]1CN(c2ccc(C#N)c3ncccc23)C[C@H](CN2CCN(c3ccncc3)CC2)O1` [ER-888286, reference compound], for which, on CYP2D6, the inhibition at 10 min, 10 µM was 52.5%. For the same compound, on hTLR9, the IC50 is above 2 µM.

For the compound `C[C@@H]1CN(c2ccc(C#N)c3ncccc23)C[C@H](CN2CCN(c3cnc4c(c3)CNC4)CC2)O1` [Example 10, 5-[(2S,6R)-2-[[4-(6,7-dihydro-5H-pyrrolo[3,4-b]pyridin-3-yl)piperazin-1-yl]methyl]-6-methyl-morpholin-4-yl] quinoline-8-carbonitrile], on CYP2D6, the inhibition at 10 min, 10 µM was determined as 2.5%.

With `C[C@@H]1CN(c2ccc(C#N)c3nccnc23)C[C@H](CN2CCN(c3cc4c(cn3)CCN[C@H]4C)CC2)O1` (single isomer, unassigned) [Example 88], at CYP2D6, the inhibition at 10 min, 10 µM came out at 9.5%.

Turning to `C[C@@H]1CN(c2ccc(C#N)c3nccnc23)C[C@H](CN2CCN(c3cc4c(cn3)CCN[C@@H]4C)CC2)O1` (single isomer, unassigned) [Example 87], on CYP2D6, the inhibition at 10 min, 10 µM is -2.5%.

For the compound `C[C@@H]1CN(c2ccc(C#N)c3ncccc23)C[C@H](CN2CCN(c3ccc4c(c3)CNCC4)CC2)O1` [Example 9, 5-[(2R,6S)-2-methyl-6-[[4-(1,2,3,4-tetrahydroisoquinolin-7-yl)piperazin-1-yl]methyl]morpholin-4-yl]quinoline-8-carbonitrile], at CYP2D6, the inhibition at 10 min, 10 µM was -2.5%.

The term inhibition denotes the change of the read-out against control, counted positive when it falls.
